Laboratory results taken from the supplement of paper PMC10307832.

How the values were obtained:
Test in all cases: relative viability (nuclei count vs DMSO), 5 days (fraction); higher = more cells survive
Kobe2602 + Dasatinib = compound: C1=CC(=CC=C1NC(=S)NNC2=C(C=C(C=C2[N+](=O)[O-])C(F)(F)F)[N+](=O)[O-])F [Kobe2602] + Cc1nc(Nc2ncc(C(=O)Nc3c(C)cccc3Cl)s2)cc(N2CCN(CCO)CC2)n1 [Dasatinib] (partner 0.075 µM)
How it was run: (§1)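 Lung cancer cell lines were pin-tool dosed in 1536-well plates on the day after seeding, with either a lone drug or a fixed anchor-drug dose plus five library-drug doses (not always all listed) in √10 steps. Nuclei were counted on 4× images after 5 days. Relative viability is the ratio of treated-well to vehicle-well nuclei counts, with each value a median of duplicate plates.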

[1] = compound: COc1cc2nccc(Oc3ccc(NC(=O)C4(C(=O)Nc5ccc(F)cc5)CC4)cc3)c2cc1OC [Cabozantinib] + Nc1nc2[nH]cc(CCc3ccc(C(=O)N[C@@H](CCC(=O)O)C(=O)O)cc3)c2c(=O)[nH]1 [Pemetrexed] (partner 0.2 µM)
How it was run: as §1

[2] = compound: COc1cc2nccc(Oc3ccc(NC(=O)C4(C(=O)Nc5ccc(F)cc5)CC4)cc3)c2cc1OC [Cabozantinib] + CC(=O)c1c(C)c2cnc(Nc3ccc(N4CCNCC4)cn3)nc2n(C2CCCC2)c1=O [Palbociclib] (partner 0.5 µM)
How it was run: as §1

[3] = compound: COc1cc2nccc(Oc3ccc(NC(=O)C4(C(=O)Nc5ccc(F)cc5)CC4)cc3)c2cc1OC [Cabozantinib] + CC1(C)CCC(c2ccc(Cl)cc2)=C(CN2CCN(c3ccc(C(=O)NS(=O)(=O)c4ccc(N[C@H](CCN5CCOCC5)CSc5ccccc5)c(S(=O)(=O)C(F)(F)F)c4)cc3)CC2)C1 [Navitoclax] (partner 0.5 µM)
How it was run: as §1

Row | Cell Line | relative viability (Kobe2602 + Dasatinib; first compound 0.2 µM) | relative viability (Kobe2602 + Dasatinib; first compound 0.6325 µM) | relative viability (Kobe2602 + Dasatinib; first compound 2 µM) | relative viability (Kobe2602 + Dasatinib; first compound 6.325 µM) | relative viability (Kobe2602 + Dasatinib; first compound 20 µM) | relative viability ([1]; first compound 0.02 µM) | relative viability ([1]; first compound 0.06325 µM) | relative viability ([1]; first compound 0.2 µM) | relative viability ([1]; first compound 0.6325 µM) | relative viability ([1]; first compound 2 µM) | relative viability ([2]; first compound 0.02 µM) | relative viability ([2]; first compound 0.06325 µM) | relative viability ([2]; first compound 0.2 µM) | relative viability ([2]; first compound 0.6325 µM) | relative viability ([2]; first compound 2 µM) | relative viability ([3]; first compound 0.02 µM) | relative viability ([3]; first compound 0.06325 µM) | relative viability ([3]; first compound 0.2 µM) | relative viability ([3]; first compound 0.6325 µM) | relative viability ([3]; first compound 2 µM)
1 | HCC-15 | 0.586 | 0.658 | 0.555 | 0.574 | 0.494 | 0.231 | 0.228 | 0.226 | 0.223 | 0.215 | 0.824 | 0.797 | 0.716 | 0.718 | 0.672 | 0.743 | 0.739 | 0.77 | 0.67 | 0.645
2 | HCC-44 |  |  |  |  |  | 0.659 | 0.609 | 0.735 | 0.701 | 0.724 | 1.04 | 1.05 | 0.998 | 0.977 | 1.03 | 1.01 | 1.1 | 1.02 | 1.07 | 0.965
3 | HCC-78 | 0.413 | 0.393 | 0.373 | 0.427 | 0.535 |  | 0.941 | 0.908 | 0.926 | 0.89 |  | 0.444 | 0.413 | 0.467 | 0.435 | 0.71 | 0.682 | 0.307 | 0.224 | 0.186
4 | HCC-366 | 0.613 | 0.632 | 0.597 | 0.646 | 0.727 | 0.189 | 0.214 | 0.173 | 0.156 | 0.15 | 0.491 | 0.503 | 0.399 | 0.364 | 0.451 | 1.15 | 1.11 | 1.16 | 1.03 | 1.06
5 | HCC-827 | 0.289 | 0.284 | 0.43 | 0.388 | 0.404 | 0.266 | 0.251 |  | 0.214 | 0.274 | 0.415 | 0.535 |  | 0.577 | 0.399 | 1.05 | 1.07 |  | 1.05 | 0.981
6 | IA-LM |  |  |  |  |  |  |  |  |  |  |  |  |  |  |  | 1.1 | 0.912 | 1.02 | 1.01 | 0.965
7 | LCLC-103H | 0.47 | 0.487 | 0.457 | 0.512 | 0.49 | 0.45 | 0.451 | 0.459 | 0.527 | 0.465 | 0.492 | 0.463 | 0.464 | 0.434 | 0.435 |  |  |  |  | 
8 | NCI-H358 | 0.176 | 0.167 | 0.209 | 0.172 | 0.186 | 0.181 | 0.171 | 0.16 | 0.18 | 0.166 | 0.112 | 0.138 | 0.163 | 0.135 | 0.135 |  |  |  |  | 
9 | NCI-H522 | 0.83 | 0.977 | 0.914 | 0.874 | 0.952 | 1.16 | 0.972 | 0.943 | 1.25 | 0.934 | 0.885 | 0.966 | 1.06 | 1.12 | 0.905 |  |  |  |  | 
10 | NCI-H596 | 0.57 | 0.678 | 0.57 | 0.661 | 0.644 | 0.485 | 0.525 | 0.487 | 0.52 | 0.54 |  |  |  |  |  | 1.22 | 1.2 | 0.861 | 0.829 | 0.729
11 | NCI-H650 | 0.429 | 0.564 | 0.501 | 0.517 | 0.5 | 0.792 | 1.07 | 0.964 | 0.941 | 0.916 | 0.343 | 0.325 | 0.339 | 0.317 | 0.296 |  |  |  |  | 
12 | NCI-H661 | 0.799 | 1.09 | 0.904 | 0.847 | 0.758 | 0.959 | 0.941 | 0.981 | 0.939 | 1.07 | 0.385 | 0.43 | 0.425 | 0.422 | 0.463 |  |  |  |  | 
13 | NCI-H727 | 0.376 | 0.384 | 0.342 | 0.484 | 0.392 |  |  |  |  |  | 0.648 | 0.689 | 0.577 | 0.62 | 0.616 | 0.355 | 0.408 | 0.463 | 0.441 | 0.507
14 | NCI-H1299 |  |  |  |  |  |  |  |  |  |  |  |  |  |  |  | 1.03 | 1.04 | 1.08 | 1.06 | 1.09
15 | NCI-H1563 | 0.473 | 0.473 | 0.466 | 0.467 | 0.527 | 0.645 | 0.869 | 0.984 | 0.684 | 0.802 |  |  |  |  |  |  |  |  |  | 
16 | NCI-H1623 | 0.577 | 0.555 | 0.427 | 0.532 | 0.575 |  |  |  |  |  |  |  |  |  |  |  |  |  |  | 
17 | NCI-H1648 |  |  |  |  |  | 0.73 | 0.908 |  | 0.793 | 0.82 | 0.27 | 0.259 |  | 0.281 | 0.299 |  |  |  |  | 
18 | NCI-H1703 |  |  |  |  |  |  |  |  |  |  |  |  |  |  |  | 0.618 | 0.48 | 0.265 | 0.258 | 0.206
19 | NCI-H2342 | 0.285 | 0.323 | 0.367 | 0.303 | 0.333 | 0.711 | 0.828 | 0.83 | 0.86 | 0.729 | 0.519 | 0.466 | 0.493 | 0.501 | 0.495 |  |  |  |  | 
20 | SW 900 | 0.463 | 0.836 | 0.586 | 0.537 | 0.898 | 0.47 | 0.482 | 0.486 | 0.448 | 0.448 | 0.585 | 0.601 | 0.436 | 0.55 | 0.492 |  |  |  |  | 
